Patent US20090270407A1, “FUNGICIDAL ISOXAZOLIDINES” (E. I. DU PONT DE NEMOURS AND COMPANY, priority 2008, published 2009)
Marks after values point to notes of the source that are not given here.

Tests used:
Conditions in all cases: 100 = 100 % disease control, 0 = no disease control relative to controls
Septoria tritici = experiment: Test D: wheat leaf blotch, preventive spray on wheat seedlings, visual disease rating; assay type: in vivo
From the text: A dash (−) indicates no test results.

Septoria nodorum = experiment: Test C: wheat glume blotch, preventive spray on wheat seedlings, visual disease rating
Alternaria solani = experiment: Test F: tomato early blight, preventive spray on tomato seedlings, visual disease rating
From the text: (§1) General protocol for preparing test suspensions for Tests A-I: The test compounds were first dissolved in acetone in an amount equal to 3% of the final volume and then suspended at the desired concentration (in ppm) in acetone and purified water (50/50 mix) containing 250 ppm of the surfactant Trem® 014 (polyhydric alcohol esters). The resulting test suspensions were then used in Tests A-I. Spraying a 200 ppm test suspension to the point of run-off on the test plants was the equivalent of a rate of 500 g/ha. (An asterisk “*” next to the rating value indicates a 40 ppm test suspension.)
The test suspension was sprayed to the point of run-off on tomato seedlings. The following day the seedlings were inoculated with a spore suspension of Alternaria solani (the causal agent of tomato early blight) and incubated in a saturated atmosphere at 27° C. for 48 h, and then moved to a growth chamber at 20° C. for 5 days, after which time visual disease ratings were made.
A dash (−) indicates no test results. All results are for 200 ppm except where followed by “*” which indicates 40 ppm.

[1] = test system: Puccinia recondita f. sp. tritici; experiment: Test B: wheat leaf rust, preventive spray on wheat seedlings, visual disease rating
From the text: (§2) General protocol for preparing test suspensions for Tests A-I: The test compounds were first dissolved in acetone in an amount equal to 3% of the final volume and then suspended at the desired concentration (in ppm) in acetone and purified water (50/50 mix) containing 250 ppm of the surfactant Trem® 014 (polyhydric alcohol esters). The resulting test suspensions were then used in Tests A-I. Spraying a 200 ppm test suspension to the point of run-off on the test plants was the equivalent of a rate of 500 g/ha.
The test suspension was sprayed to the point of run-off on wheat seedlings. The following day the seedlings were inoculated with a spore suspension of Puccinia recondita f. sp. tritici (the causal agent of wheat leaf rust) and incubated in a saturated atmosphere at 20° C. for 24 h, and then moved to a growth chamber at 20° C. for 7 days, after which time visual disease ratings were made.
(§3) All results are for 200 ppm except where followed by “*” which indicates 40 ppm.

[2] = test system: Erysiphe graminis f. sp. tritici; experiment: Test A: wheat powdery mildew, preventive spray on wheat seedlings, visual disease rating
From the text: as §1
The test suspension was sprayed to the point of run-off on wheat seedlings. The following day the seedlings were inoculated with a spore dust of Erysiphe graminis f. sp. tritici (the causal agent of wheat powdery mildew) and incubated in a growth chamber at 20° C. for 8 days, after which time visual disease ratings were made.

Botrytis cinerea = experiment: Test E: tomato Botrytis, preventive spray on tomato seedlings, visual disease rating
From the text: as §2
The test suspension was sprayed to the point of run-off on tomato seedlings. The following day the seedlings were inoculated with a spore suspension of Botrytis cinerea (the causal agent of tomato Botrytis) and incubated in saturated atmosphere at 20° C. for 48 h, and then moved to a growth chamber at 24° C. for 3 additional days, after which time visual disease ratings were made.
as §3

Structure (SMILES) | Test D disease control rating (Septoria tritici; 200 ppm) | Test C disease control rating (Septoria nodorum; 200 ppm) | Test F disease control rating (Alternaria solani; 200 ppm) | Test B disease control rating ([1]; 200 ppm) | Test A disease control rating ([2]; 200 ppm) | Test E disease control rating (Botrytis cinerea; 200 ppm) | Test D disease control rating (Septoria tritici; 40 ppm (marked *)) | Test C disease control rating (Septoria nodorum; 40 ppm (marked *)) | Test F disease control rating (Alternaria solani; 40 ppm (marked *)) | Test B disease control rating ([1]; 40 ppm (marked *)) | Test A disease control rating ([2]; 40 ppm (marked *)) | Test E disease control rating (Botrytis cinerea; 40 ppm (marked *))
CN1OC(C)(c2cccnc2)CC1c1cccc2ccccc12 (mixture of isomers) [Compound 62] | 80% | 97% | 91% | 17% | 97% | 88% |  |  |  |  |  | 
CN1OC(C)(c2cccnc2)CC1c1ccccc1Br (stereo not drawn) [Compound 66] | 5% | 0% | 0% | 0% | 0% | 0% |  |  |  |  |  | 
COC(=O)c1ccc(C2CC(C)(c3cccnc3)ON2C)cc1 (stereo not drawn) [Compound 39] | 32% | 51% | 0% | 0% | 88% | 90% |  |  |  |  |  | 
CN1OC(C)(c2cccnc2)CC1c1ccc(-n2nc(-c3ccccn3)cc2C(F)(F)F)cc1 (stereo not drawn) [Compound 75] |  |  |  |  |  |  | 19* % | 0* % | 0* % | 22* % | 0* % | 0* %
COc1cc(Br)ccc1C1CC(C)(c2cccnc2)ON1C (stereo not drawn) [Compound 85] | 89% | 64% | 92% | 0% | 90% | 0% |  |  |  |  |  | 
Cc1ccccc1C1CC(C)(c2cccnc2)ON1C (mixture of isomers) [Compound 99] | 18% | 0% | 0% | 17% | 0% | 0% |  |  |  |  |  | 
Cc1cnn(-c2ccc(C3CC(C)(c4cccnc4)ON3C)cc2)c1 (stereo not drawn) [Compound 69] |  |  |  |  |  |  | 12* % | 97* % | 99* % | 0* % | 0* % | 87* %
COc1ccccc1C1CC(C)(c2cccnc2)ON1C (mixture of isomers) [Compound 100] | 13% | 0% | 8% | 0% | 21% | 26% |  |  |  |  |  | 
CN1OC(C)(c2cccnc2)CC1c1cccc2c1OC(F)(F)O2 (stereo not drawn) [Compound 91] | 0% | 0% | 0% | 0% | 0% | 0% |  |  |  |  |  | 
CN1OC(C)(c2cccnc2)CC1c1ccc(-c2ccn(CC(F)(F)F)n2)cc1 (mixture of isomers) [Compound 80] | 94% | 0% | 0% | 0% | 0% | 0% |  |  |  |  |  | 
CN1OC(C)(c2cccnc2)CC1c1cccc(Cl)c1 (stereo not drawn) [Compound 77] | 62% | 0% | 0% | 0% | 0% | 0% |  |  |  |  |  | 
CN1OC(C)(c2cccnc2)CC1c1cccc(Cl)c1 (stereo not drawn) [Compound 76] | 34% | 0% | 9% | 0% | 84% | 85% |  |  |  |  |  | 
CN1OC(C)(c2cccnc2)CC1c1ccc(-c2cccs2)cc1 (stereo not drawn) [Compound 54] |  |  |  |  |  |  | 79* % | 98* % | 99* % | 9* % | 71* % | 99* %
CN1OC(C)(c2cccnc2)CC1c1ccccc1F (stereo not drawn) [Compound 79] | 7% | 22% | 0% | 27% | 0% | 0% |  |  |  |  |  | 
COc1ccc(C2CC(C)(c3cccnc3)ON2C)c2ccccc12 (mixture of isomers) [Compound 68] | 65% | 0% | 0% | 0% | 0% | 0% |  |  |  |  |  | 
CN1OC(C)(c2cccnc2)CC1c1cccc(Br)c1 (stereo not drawn) [Compound 64] | 45% | 0% | 0% | 0% | 64% | 0% |  |  |  |  |  | 
CN1OC(C)(c2cccnc2)CC1c1ccc(-n2nc(C(F)(F)F)cc2C(F)(F)F)cc1 (stereo not drawn) [Compound 59] |  |  |  |  |  |  | 2* % | 0* % | 0* % | 0* % | 52* % | 0* %
Cc1ccn(-c2ccc(C3CC(C)(c4cccnc4)ON3C)cc2)n1 (stereo not drawn) [Compound 42] |  |  |  |  |  |  | 88* % | 100* % | 97* % | 9* % | 71* % | 99* %
CN1OC(C)(c2cccnc2)CC1c1cccc(I)c1 (mixture of isomers) [Compound 87] | 84% | 0% | 0% | 0% | 0% | 0% |  |  |  |  |  | 
CN1OC(C)(c2cccnc2)CC1c1ccccc1I (mixture of isomers) [Compound 88] | 70% | 0% | 0% | 27% | 81% | 0% |  |  |  |  |  | 
CN1OC(C)(c2cccnc2)CC1c1ccc(Br)cc1Br (stereo not drawn) [Compound 83] | 91% | 81% | 56% | 0% | 98% | 82% |  |  |  |  |  | 
CN1OC(C)(c2cccnc2)CC1c1ccc(-n2ccc(-c3ccc(Br)cc3)n2)cc1 (stereo not drawn) [Compound 49] |  |  |  |  |  |  | 27* % | 0* % | 0* % | 0* % | 61* % | 0* %
CN1OC(C)(c2cccnc2)CC1c1ccc(-n2cc(I)cn2)cc1 (stereo not drawn) [Compound 56] |  |  |  |  |  |  | 74* % | 99* % | 91* % | 0* % | 52* % | 94* %
